Measurements from paper PMC11510023, “A Novel Cold-Adapted Nitronate Monooxygenase from Psychrobacter sp. ANT206: Identification, Characterization and Degradation of 2-Nitropropane at Low Temperature” (Microorganisms, 2024).

System: T1, rPsNMO
T1 construct: gene psnmo; N-terminal His-tag, pET28a(+), E. coli BL21(DE3)
Test: nitrite release, colorimetric at […] nm; Lineweaver-Burk
Type: biochemical, Psychrobacter sp. ANT206
Settings: 30 °C, pH 7.5 potassium phosphate, 6-12 mM 2-NP; substrate pre-equilibrated 24 h with equal KOH to give the anionic form (propane-2-nitronate)

2-NP
Km: 10.3 mM
